Biological target: T1, Ox-R2 (orexin R2 receptor) (Homo sapiens, UniProt O43614)
T1 construct: gene HCRTR2
T1 sequence (O43614 1-444): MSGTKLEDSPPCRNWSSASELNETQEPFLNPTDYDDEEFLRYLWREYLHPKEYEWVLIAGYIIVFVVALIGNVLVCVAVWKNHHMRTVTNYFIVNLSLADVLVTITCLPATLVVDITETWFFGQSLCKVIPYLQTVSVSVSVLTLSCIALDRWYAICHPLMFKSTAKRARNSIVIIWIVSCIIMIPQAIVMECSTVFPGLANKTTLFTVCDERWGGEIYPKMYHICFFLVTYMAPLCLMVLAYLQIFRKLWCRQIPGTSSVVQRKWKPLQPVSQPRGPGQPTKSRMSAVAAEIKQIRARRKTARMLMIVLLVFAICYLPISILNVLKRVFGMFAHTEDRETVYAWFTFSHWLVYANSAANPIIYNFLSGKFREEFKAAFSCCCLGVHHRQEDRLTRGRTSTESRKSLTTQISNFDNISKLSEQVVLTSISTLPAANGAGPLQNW
Assay: FLUO-3 calcium mobilization in HEK-293 cells, inhibition of […] orexin-B response
Type: cell-based

IC50: 332 ± 13 nM
SMILES: CNC(=O)[C@@H](c1ccccc1)N1CCc2cc(OC)c(OC)cc2[C@@H]1CCc1ccc(C(F)(F)F)cc1 [almorexant]
